From PubChem BioAssay AID504641 (Sanford-Burnham Center for Chemical Genomics, 2011) come the findings set out here.

The source made the active and inactive calls.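 How the source made its calls: active means mean IC50 at or below a set limit; inactive means the rest.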

In the assay the test system is 697 B-cell NF-kB luciferase reporter, PMA/ionomycin, 16 h. Nature of the assay: B-cell antigen receptor NF-kB activation inhibitors, SAR follow-up, 697 B cells, luminescence, set 3 (AID 504641).
Turning to `CCOc1ccc(-c2nc(CSCC(=O)NCCC3=CCCCC3)c(C)o2)cc1`, the IC50 was 36500 nM (inactive).
On to `CC(C)(C)c1ccc(-c2noc(CCC(=O)Nc3ccccc3)n2)cc1`, for which the IC50 is < 160 nM.
As for `CNC(=O)CCc1nc(-c2ccc(F)cc2)no1`, the figure is > 80000 nM (inactive); as for `CC(C)(C)c1ccc(-c2noc(CCC(=O)NC3CCCCC3)n2)cc1`, 400 nM; as for `CC(C)(C)c1ccc(-c2noc(CCC(=O)N3CCOCC3)n2)cc1`, 24300 nM (inactive).
On to `CCOc1ccc(-c2nc(CSCC(=O)NCc3cccs3)c(C)o2)cc1`, for which the IC50 was 650 nM.
To `CCCNC(=O)CSCc1nc(-c2ccc(OCC)cc2)oc1C` belongs 1510 nM; to `CCOc1ccc(-c2nc(CSCC(=O)NC(C)C)c(C)o2)cc1`, 1240 nM.
To `CCOc1ccc(-c2nc(CSCC(=O)NCCc3ccc(C)cc3)c(C)o2)cc1` belongs 18100 nM; to `CCOc1ccc(-c2nc(CSCC(=O)NCCc3ccc(Cl)cc3)c(C)o2)cc1`, > 80000 nM (inactive); to `CCCCNC(=O)CSCc1nc(-c2ccc(OCC)cc2)oc1C`, 8640 nM.
As for `CCOCCCNC(=O)CSCc1nc(-c2ccc(OCC)cc2)oc1C`, the figure is 10300 nM; as for `C=CCNC(=O)CCc1nc(-c2ccc(C(C)(C)C)cc2)no1`, 190 nM.
Regarding `CCOc1ccc(-c2nc(CSCC(=O)NCCc3ccccc3)c(C)o2)cc1`, the 50% inhibitory concentration (IC50) was 3560 nM.
To `CNC(=O)CCc1nc(-c2ccc(OC)cc2)no1` belongs > 80000 nM (inactive).
As for `CCOc1ccc(-c2nc(CSCC(=O)NC3CCCC(C)C3C)c(C)o2)cc1` (stereo not drawn), the figure is > 80000 nM (inactive); as for `CCOc1ccc(-c2nc(CSCC(=O)NCc3ccccc3)c(C)o2)cc1`, 6750 nM.
To `CCOc1ccc(-c2noc(CCC(=O)NC)n2)cc1` belongs > 80000 nM (inactive); to `CCCNC(=O)CCc1nc(-c2ccc(C(C)(C)C)cc2)no1`, 190 nM; to `CSc1ccc(-c2nc(CSCC(=O)NC3CC3)c(C)o2)cc1`, 1360 nM.
Regarding `COc1cccc(NC(=O)CCc2nc(-c3ccc(C(C)(C)C)cc3)no2)c1`, the concentration for half-maximal inhibition (IC50) is < 160 nM.
As for `CCOc1ccc(-c2nc(CSCC(=O)N3CCCC3)c(C)o2)cc1`, the figure is > 80000 nM (inactive); as for `CNC(=O)CCc1nc(-c2ccc(Cl)cc2)no1`, > 80000 nM (inactive); as for `CC(C)NC(=O)CCc1nc(-c2ccc(C(C)(C)C)cc2)no1`, 280 nM.
As for `COc1ccccc1NC(=O)CCc1nc(-c2ccc(C(C)(C)C)cc2)no1`, the figure is < 160 nM.
Take `CC(C)(C)c1ccc(-c2noc(CCC(=O)N3CCCCC3)n2)cc1`: the IC50 is 30300 nM (inactive).
To `CCOc1ccc(-c2nc(CSCC(=O)NC3CCCC3)c(C)o2)cc1` belongs 25700 nM (inactive); to `CC(C)CNC(=O)CCc1nc(-c2ccc(C(C)(C)C)cc2)no1`, 240 nM; to `CC(C)(C)c1ccc(-c2noc(CCC(=O)Nc3cccc([N+](=O)[O-])c3)n2)cc1`, < 160 nM.
As for `CC(C)(C)c1ccc(-c2noc(CCC(=O)NC3CCCC3)n2)cc1`, the figure is 360 nM; as for `CCOc1ccccc1NC(=O)CCc1nc(-c2ccc(C(C)(C)C)cc2)no1`, < 160 nM.
To `CCOc1ccc(-c2nc(CSCC(=O)NCCOC)c(C)o2)cc1` belongs 310 nM; to `CCOc1ccc(-c2nc(CSCC(=O)NC(C)CC)c(C)o2)cc1` (stereo not drawn), 46900 nM (inactive); to `CC(C)(C)c1ccc(-c2noc(CCC(=O)Nc3cccnc3)n2)cc1`, 160 nM.
Consider `CCOc1ccc(-c2nc(CSCC(=O)N3CCC(C)CC3)c(C)o2)cc1`, for which the IC50 was 70400 nM (inactive).
To `CC(C)(C)c1ccc(-c2noc(CCC(=O)NCc3ccco3)n2)cc1` belongs 200 nM; to `CCCNC(=O)CSCc1nc(-c2ccc(SC)cc2)oc1C`, > 80000 nM (inactive); to `CCOc1ccc(-c2nc(CSCC(=O)NCc3cccnc3)c(C)o2)cc1`, 2380 nM.
As for `CNC(=O)CCc1nc(-c2ccc(C)cc2)no1`, the figure is > 80000 nM (inactive).
`CCOc1ccc(-c2nc(CSCC(=O)NCCN3CCCC3)c(C)o2)cc1`: the IC50 is 12100 nM.
With `CCOc1ccc(-c2nc(CSCC(=O)NCc3ccc(C)cc3)c(C)o2)cc1`, the 50% inhibitory concentration (IC50) was 2770 nM.
Regarding `CC(C)(C)c1ccc(-c2noc(CCC(=O)NCC3CCCO3)n2)cc1` (stereo not drawn), the IC50 is 590 nM.
To `CCOc1ccc(-c2nc(CSCC(=O)NCC3CCCO3)c(C)o2)cc1` (stereo not drawn) belongs 7840 nM.
